Experimental data taken from patent US20240075093A1, “COMPOSITIONS AND METHODS OF TREATING A PI3K MEDIATED DISEASE” (VIRGINIA TECH INTELLECTUAL PROPERTIES, INC., priority 2020, published 2024).

What was measured:
[1] = tested on: tumor growth in mice; test: GBM tumor growth in mice; format: in vivo
[2] = tested on: U87MG cells; test: MTS cell viability assay; format: cell-based, human; conditions: 20 uM TGX-221 and 50 uM TMZ, 4 days, MTS
Method: Cell viability was measured by the MTS assay. P values were determined using the student t test or one-way ANOVA. Error bars represent three independent experiments.
Cell viability was determined using the MTS viability assay. The vehicle DMSO was the control and set as 100%. Treated cells were normalized to DMSO-treated cells. […] (FIG. 43D) Scores of Excess Over Bliss in FIG. 43C calculated using the Bliss Independence model. One-way ANOVA and student t test were used to determine statistical significance.
Cell viability was determined by the MTS cell viability assay (Promega) as described previously 21,24-27. In brief, 250 to 1,000 cells were plated in the wells of a 96-well plate-based upon the cell growth rate. Because the drug treatment usually takes 6-7 days, fast-growing cells could be over-grown if plated at a high cell density. For αCT1 treatment experiments, Applicant intended to plate cells at a low density to minimize the formation of gap junctions, and thus, more Cx43-hemichannels can be present. […] At each hour time point, the absorbance at 490 nm was measured using a FilterMax F3 microplate reader (Molecular Devices, LLC) according to the manufacturer's instructions. Percent cell viability was obtained by dividing the absorbance of treatment groups to those of untreated and respective vehicle control groups.

[3] = tested on: SF295 cells; test: wound-healing (migration) assay; format: cell-based; conditions: 8 μM, 24 hours
Method: (§1) (FIG. 8A) Wound-healing assay. Cells were plated confluently and then treated with PI3K isoform-selective inhibitors at 8 μM for 24 hours. Cells were imaged at 0- and 24-hour time point. Images of 24-hour time point are shown. Scale bar: […]. (FIG. 8B-8D) Quantification of migration distance. Images from three different areas were analyzed using Image J. Migration distances were obtained by subtracting 24-hour measurements with those of 0-hour.

[4] = tested on: LN229/GSCs; test: wound-healing (migration) assay; format: cell-based; conditions: 8 μM, 24 hours
Method: as §1

Q: Which “tumor growth in mice” value [1] does the source give for Cc1cc(C(C)Nc2ccccc2)c2nc(N3CCOCC3)cc(=O)n2c1 (stereo not shown) [TGX-221] here?
A: slow down tumor growth

Q: And the TMZ sensitivity [2]?
A: increased TMZ sensitivity

Q: What about the cell migration [3] of the same compound?
A: inhibited the migration

Q: What about the cell migration [4] of the same compound?
A: inhibited the migration
